The values below are quoted from earlier work in patent US10653683B2, “Tiotropium inhalation solution for nebulization” (GLENMARK SPECIALTY S.A., priority 2016, dated 2020).

The conditions of data set [1]: relative to histamine.

Consider `C[N+]1(C)C2CC(OC(=O)C(O)(c3cccs3)c3cccs3)CC1C1OC12` (stereo not drawn) [Tiotropium bromide monohydrate, (1α, 2ß, 4ß, 5α, 7ß)-7-[(hydroxydi-2-thienylacetyl)oxy]-9,9-dimethyl-3-oxa-9-azoniatricyclo [3.3.1.02, 4] nonane bromide monohydrate], for which the Solubility in methanol entry (methanol) is “soluble”. Also, for the setting “water”, the Solubility in water entry is recorded as “sparingly soluble”. For the compound benzalkonium chloride, in data set [1], the “Bronchoconstrictor properties, times less potent than histamine” value is 7.4 times.
